The NIST ThermoML archive (doi:10.1021/je700621d)

What was measured:
[1] = xn = mol fraction of the nth substance listed; details: 298 K; for surface tension liquid-gas: Pendant drop shape; for mass density: 101 kPa, Liquid, Vibrating tube method
[2] = for mass density: Liquid, Vibrating tube method; for surface tension liquid-gas: Pendant drop shape

CCCC[n+]1ccn(C)c1.O=S(=O)([N-]S(=O)(=O)C(F)(F)F)C(F)(F)F + CCCO
[1]
Details | mass density [kg/m3] | surface tension liquid-gas [mN/m]
x1 = 0.035 | 878.2 | 23.6
x1 = 0.131 | 1036.2 | 24.16
x1 = 0.202 | 1116.5 | 24.73
x1 = 0.296 | 1194.1 | 25.77
x1 = 0.373 | 1243.5 | 26.47
x1 = 0.517 | 1311.8 | 28.6
x1 = 0.664 | 1361.9 | 29.89
x1 = 0.685 | 1368 | 30.54
x1 = 0.884 | 1422 | 32.49
x1 = 1 | 1436.4 | 32.8

CCCCCCCCOS(=O)(=O)[O-].CCCCn1cc[n+](C)c1 [1-butyl-3-methylimidazolium octyl sulfate]
[2], 101.33 kPa
Details | mass density [kg/m3]
278.15 K | 1077.3
288.15 K | 1070.4
298.15 K | 1063.8
308.15 K | 1057.1
318.15 K | 1050.8
328.15 K | 1044.3

[2]
Details | surface tension liquid-gas [mN/m]
278.75 K | 28.08
288.15 K | 27.29
298.15 K | 26.71
308.15 K | 26.27
318.15 K | 25.72
328.15 K | 24.99

CCOS(=O)(=O)[O-].CCn1cc[n+](C)c1 [1-ethyl-3-methylimidazolium ethyl sulfate]
[2], 101.33 kPa
Details | mass density [kg/m3]
278.15 K | 1255.1
288.15 K | 1248.1
298.15 K | 1241.1
308.15 K | 1234.2
318.15 K | 1227.3
328.15 K | 1220.6

[2]
Details | surface tension liquid-gas [mN/m]
278.75 K | 46.7
288.15 K | 46.04
298.15 K | 45.43
308.15 K | 44.72
318.15 K | 43.74
328.15 K | 43.37

CCCCO [butan-1-ol]
Details | surface tension liquid-gas [mN/m]
[2], 298 K | 23.96

Details | mass density [kg/m3]
[2], 298 K, 101.3 kPa | 805.3

CCCCO [butan-1-ol] + CCCC[n+]1ccn(C)c1.O=S(=O)([N-]S(=O)(=O)C(F)(F)F)C(F)(F)F
[1], x2 = 0
Details | mass density [kg/m3] | surface tension liquid-gas [mN/m]
– | 805.3 | 23.96

CCCC[N+](C)(C)C.O=S(=O)([N-]S(=O)(=O)C(F)(F)F)C(F)(F)F [butyltrimethylammonium bis(trifluoromethylsulfonyl)imide]
[2], 101.33 kPa
Details | mass density [kg/m3]
278.15 K | 1412.3
288.15 K | 1403
298.15 K | 1394
308.15 K | 1385
318.15 K | 1376.1
328.15 K | 1367.3

[2]
Details | surface tension liquid-gas [mN/m]
278.75 K | 33.31
288.15 K | 33.04
298.15 K | 32.46
308.15 K | 32
318.15 K | 31.21
328.15 K | 30.64

CCCO [propan-1-ol]
Details | surface tension liquid-gas [mN/m]
[2], 298 K | 23.34

Details | mass density [kg/m3]
[2], 298 K, 101.3 kPa | 799

CCCO [propan-1-ol] + CCCC[n+]1ccn(C)c1.O=S(=O)([N-]S(=O)(=O)C(F)(F)F)C(F)(F)F
[1], x2 = 0
Details | mass density [kg/m3] | surface tension liquid-gas [mN/m]
– | 799 | 23.34
